# Reference: patent publication US12391768B2, “Antibodies to ticagrelor and methods of use” (MEDIMMUNE LIMITED, priority 2014, dated 2025)
# Where two headings read alike, the source gives them in different places.
# B1: TICA0212: combination of TICA0162 and TICA0152; VH SEQ ID NO:72, VL SEQ ID NO:77 (antibody, listed as Homo sapiens, V domains shown)
# VH: QVQLQESGAEVKKPGSSVRVSCKASGGTFDSYSIHWVRQAPGQGLEWMGGIIPAFGTLSSAQDFQARVTISADKSTSTAYMELSGLRSEDTAVYYCARGSFDYYFWSASHPPNDALAIWGQGTLVTVSS
# VL: QSVVTQPPSVSAAPGQKVTISCSGSNSDIGNNYVSWYQQLPGTAPKLLIYDNNKRPSGIPDRFSGSKSGTSATLAITGLQAGDEADYYCGTWLYDRAVGLFGGGTKVTVL
# What was measured:
# mouse tail bleeding = experiment: Prophylactic mouse tail bleeding study; format: in vivo, mice
# Method: (§1) Mice were pre-treated with a continuous infusion of ticagrelor, 300 μg/kg/min or vehicle for 20 minutes. After stop of infusion, t=0, a bolus dose of TICA0212/MEDI2452 (600 mg/kg) or vehicle (histidine sucrose buffer) was given over 45 seconds and at t=30 minutes bleeding was induced by cutting 5mm from the tip of the tail. The tip of the tail was rinsed with water (2 mL/min) and the blood and water mixture was collected in a small chamber, where a stirrer mixed the fluid to enhance haemolysis and establish a homogeneous solution. Light transmission, at 525 nm, was recorded for 30 minutes when terminal blood samples were collected from the abdominal aorta for platelet aggregation. Light transmittance was transformed to absorbance and used to calculate blood loss as area under the absorbance curve (AUC, absorbance*s) and total bleeding time (BT, s) by plotting absorbance over time. All transmittance below 95% was defined as bleeding. Samples for platelet aggregation and total and free plasma exposure were also collected at end of ticagrelor infusion (t=0) and at time of tail cut (t=30 minutes).
# Studies were approved by the ethical committee for animal research at the University of Göteborg, Sweden. Mice were anaesthetised with isofluran gas (Forenc®, Abbot Scandinavia AB, Sweden). A catheter was inserted in the left jugular vein for administration of vehicle or drug. The body temperature was maintained at 38° C. by external heating.
# To translate the effect of TICA0212/MED12452 on platelet aggregation to a potential effect on bleeding, a prophylactic mouse tail bleeding study was performed. Ticagrelor was infused to a mean total ticagrelor and TAM plasma concentration of 7.6 and 0.3 μM, respectively, to provide a significant drug-dependant bleeding window. Immediately after stopping the ticagrelor infusion TICA0212/MEDI2452 was dosed as a single bolus of 600 mg/kg over 30 seconds. […] Bleeding was initiated by a tail cut and monitored for 30 minutes. In vehicle treated mice the mean total ticagrelor and TAM plasma concentration at time of tail cut were 2.4 and 0.6 μM. […] In this prophylactic setting TICA0212/MED12452 normalized ticagrelor dependent bleeding.
# [1] = tested on: ADP-induced platelet aggregation in whole blood; experiment: Ex vivo whole blood impedance aggregometry after i.v. dosing of ticagrelor treated mice; format: in vivo; details: for mean ADP-induced aggregation response: n=4
# Method: The speed of onset and the extent of TICA0212/MEDI2452 mediated reversal of ticagrelor mediated inhibition of ADP-induced platelet aggregation in whole blood (impedance aggregometry) was determined ex vivo after intravenous (i.v.) dosing of ticagrelor in mice. Mice were given ticagrelor i.v. as a bolus of 1200 μg/kg. over 5 minutes, followed by a 15 min continuous infusion of 30 μg/kg/min. After termination of the ticagrelor infusion, when ticagrelor plasma exposure was measured to be in average 1.4 μM, mice were given an i.v. bolus of 250 mg/kg TICA0212/MEDI2452. At 5, 30, and 60 min post TICA0212/MEDI2452 administration mice were sacrificed and blood samples were collected. In this study the ADP-induced aggregation response was measured for 6 min and data expressed as the mean area under the curve of aggregation unit (AU) recorded over time (AU*min).
# In carrying out the impedance aggregometry assay, mice were sacrificed and blood samples were collected into 7 μM hirudin. Blood (175 μL) was added to pre-heated […] (37° C., 175 μL) in the Multiplate mini test cells and mixed for 3 min before addition of ADP, 12 μL, to a final concentration of 6.5 μM. The disposable Multiplate mini test cells contain a stir bar and have two separate pair of electrodes that are immersed into the blood sample.
# When agonist (ADP) is added and shear is induced by stirring, platelets will start to adhere and aggregate onto the electrodes.
# as §1
# TICA0212 Fab = experiment: HTRF competition binding selectivity assay, TICA0212 His-Fab; design: species or system human; details: Table 7, DMSO normalised; 5 nM biotinylated ticagrelor, 1 nM His Fab; read-out: IC50 (uM) for inhibition of biotinylated ticagrelor binding to TICA0212 Fab
# Method: (§2) Total Binding control wells were set up which contained all of the assay components above except that 5 ul assay buffer was added in place of the test selectivity compound addition. Negative Binding control wells were set up which contained all of the assay components included in the Total Binding control wells except that 5ul assay buffer was added in place of the His-Fab addition. Test compound serial titrations were either ½ or ⅓ depending on the particular experiment and top final assay compound concentrations were optimized on a compound specific basis. The concentration of biotinylated ticagrelor and His-Fab was optimized on a Fab specific basis in separate experiments. For the four Fabs investigated at the end of the lead isolation phase (TICA0010, TICA0049, TICA0053 and TICA0072) the final assay reagent concentrations used are set out in Table 1 below:
# For the two Fabs investigated at the end of the lead optimization phase (TICA0162 and TICA0212) the final assay reagent concentrations used were 5nM biotinylated ticagrelor and 1 nM His Fab in both cases. […] At the end of the set up procedure that assay was incubated for 3hrs at RT before being read on an Envision plate reader using a standard read protocol. […]
# TICA0072 Fab = experiment: HTRF competition binding selectivity assay, TICA0072 His-Fab; design: species or system human
# Method: as §2
# For the two Fabs investigated at the end of the lead optimization phase (TICA0162 and TICA0212) the final assay reagent concentrations used were 5nM biotinylated ticagrelor and 1 nM His Fab in both cases. […] In order to enable subsequent normalization of data to correct for any such vehicle related effects parallel titrations of DMSO alone were included in most experiments in which the final assay DMSO concentrations mirrored those of the test compound serial dilutions. At the end of the set up procedure that assay was incubated for 3hrs at RT before being read on an Envision plate reader using a standard read protocol.
# The negative ratio value used in the calculation of % Delta F was derived from the Negative Binding control wells. % Delta F values were then used to calculate % Specific Binding values according to the equation below: Specific Binding (%)={(Sample Delta F−Negative Binding Delta F)/(Total Binding Delta F−Negative Binding Delta F)}×100
# For standard calculations of % Specific Binding Total Binding Delta F was taken from Total Binding control wells which contained all of the aforementioned components of the assay but without inclusion of any competing test compound.
# In those experiments where DMSO normalization was applied DMSO normalised % Specific Binding was calculated essentially according to the equation above except that in this case Total Binding Delta F was taken from wells containing all of the components in the Total Binding control wells as well as DMSO at a concentration equivalent to that in the relevant sample well.
# In a second series of experiments further selectivity data was generated for TICA0049 and TICA0072 Fabs in which a subset of four of the twelve compounds listed in FIG. 4 were retested along with ticagrelor, TAM and TIM and several adenosine related compounds. Here, in a refinement to the earlier investigations in Table 2, experiments were designed in order to enable normalisation of percent specific binding values to correct for any non-specific vehicle related effects due to DMSO. Example plotted data from this second series of experiments is shown in FIG. 5A-F along with tabulated IC50 values in Table 3.
# [2] = human, in vivo; cited from earlier work
# [3] = ticagrelor versus vehicle, p<0.05
# [4] = 5 min after ticagrelor infusion (1200 μg/kg bolus + 30 μg/kg/min) and bolus (PBS or 250 mg/kg Fab i.v.)
# [5] = 30 min after ticagrelor infusion (1200 μg/kg bolus + 30 μg/kg/min) and bolus (PBS or 250 mg/kg Fab i.v.)
# [6] = 60 min after ticagrelor infusion (1200 μg/kg bolus + 30 μg/kg/min) and bolus (PBS or 250 mg/kg Fab i.v.)
# [7] = 600 mg/kg bolus 30 min before tail cut, n=12
Molecule,"bleeding time over 30 minutes, enhancement (mouse tail bleeding; [3])","total blood loss over 30 minutes, enhancement (mouse tail bleeding; [3])","mean ADP-induced aggregation response [1, 4]","mean ADP-induced aggregation response [1, 5]","mean ADP-induced aggregation response [1, 6]",IC50 (TICA0212 Fab),"IC50 (TICA0072 Fab; first series (Table 2), not DMSO normalised, read-out: IC50 (uM) for inhibition of biotinylated ticagrelor binding to TICA0072 his-Fab)","IC50 (TICA0072 Fab; second series (Table 3), DMSO normalised, read-out: IC50 in competition binding selectivity studies, TICA0072)",circulating half-life [2],bleeding time relative ticagrelor alone (mouse tail bleeding; [7]),blood loss relative ticagrelor alone (mouse tail bleeding; [7]),"ADP-induced aggregation ([1]; Example 12, 30 minutes after single bolus of 600 mg/kg, ticagrelor 300 μg/kg/min for 20 min)"
"CCCSc1nc(N[C@@H]2C[C@H]2c2ccc(F)c(F)c2)c2nnn([C@@H]3C[C@H](OCCO)[C@@H](O)[C@H]3O)c2n1 [Ticagrelor, (1S,2S,3R,5S)-3-[7-{[(1R,2S)-2-(3,4-difluorophenyl)cyclopropyl]amino}-5-(propylthio)-3H-[1,2,3]triazolo[4,5-d]pyrimidin-3-yl]-5-(2-hydroxyethoxy)cyclopentane-1,2-diol]",~1.6 fold,about 3.8 fold,2 AU*min,6 AU*min,14 AU*min,0.035 µM,0.113 µM,0.356 µM,8 h,–,–,–
B1,–,–,147 AU*min,448 AU*min,413 AU*min,–,–,–,–,significantly (p<0.05) reversed,significantly (p<0.05) reversed,fully normalized
